The values below come from patent US20250114345A1, “COMPOUNDS AND COMPOSITIONS AS CBP/P300 DEGRADERS AND USES THEREOF” (Oncopia Therapeutics, Inc. d/b/a/ SK Life Science Labs, priority 2023, published 2025).

In general, Dmax refers to the greatest extent of degradation seen. Higher therefore signals deep degradation. What is called DC50 is the midpoint of the concentration-degradation curve. High values mean degradation only at high concentration, low ones degradation at low concentration.

The test deals with T1, p300 (Homo sapiens, UniProt Q09472).
T1 construct: host or cells: A549 P300 HiBit cells
Nature of the test: P300 degradation, HiBit technology in A549 P300 HiBit cells (2 h). Format: cell-based. The conditions noted are these: 2 hrs post treatment; for Dmax: A549, A549 P300 HiBit cells; for DC50: A549 P300 HiBit cells. A digest of the protocol:
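HiBiT knock-in A549 cells received compound in serial dilution at 37 °C under 5% CO2. Remaining tagged protein was quantified by lytic HiBiT luminescence after 10 min shaking at room temperature, yielding potency and maximal degradation.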
For orientation: The HiBiT peptide binds its large partner to form an active luciferase.

T1 sequence (Q09472 whole entry): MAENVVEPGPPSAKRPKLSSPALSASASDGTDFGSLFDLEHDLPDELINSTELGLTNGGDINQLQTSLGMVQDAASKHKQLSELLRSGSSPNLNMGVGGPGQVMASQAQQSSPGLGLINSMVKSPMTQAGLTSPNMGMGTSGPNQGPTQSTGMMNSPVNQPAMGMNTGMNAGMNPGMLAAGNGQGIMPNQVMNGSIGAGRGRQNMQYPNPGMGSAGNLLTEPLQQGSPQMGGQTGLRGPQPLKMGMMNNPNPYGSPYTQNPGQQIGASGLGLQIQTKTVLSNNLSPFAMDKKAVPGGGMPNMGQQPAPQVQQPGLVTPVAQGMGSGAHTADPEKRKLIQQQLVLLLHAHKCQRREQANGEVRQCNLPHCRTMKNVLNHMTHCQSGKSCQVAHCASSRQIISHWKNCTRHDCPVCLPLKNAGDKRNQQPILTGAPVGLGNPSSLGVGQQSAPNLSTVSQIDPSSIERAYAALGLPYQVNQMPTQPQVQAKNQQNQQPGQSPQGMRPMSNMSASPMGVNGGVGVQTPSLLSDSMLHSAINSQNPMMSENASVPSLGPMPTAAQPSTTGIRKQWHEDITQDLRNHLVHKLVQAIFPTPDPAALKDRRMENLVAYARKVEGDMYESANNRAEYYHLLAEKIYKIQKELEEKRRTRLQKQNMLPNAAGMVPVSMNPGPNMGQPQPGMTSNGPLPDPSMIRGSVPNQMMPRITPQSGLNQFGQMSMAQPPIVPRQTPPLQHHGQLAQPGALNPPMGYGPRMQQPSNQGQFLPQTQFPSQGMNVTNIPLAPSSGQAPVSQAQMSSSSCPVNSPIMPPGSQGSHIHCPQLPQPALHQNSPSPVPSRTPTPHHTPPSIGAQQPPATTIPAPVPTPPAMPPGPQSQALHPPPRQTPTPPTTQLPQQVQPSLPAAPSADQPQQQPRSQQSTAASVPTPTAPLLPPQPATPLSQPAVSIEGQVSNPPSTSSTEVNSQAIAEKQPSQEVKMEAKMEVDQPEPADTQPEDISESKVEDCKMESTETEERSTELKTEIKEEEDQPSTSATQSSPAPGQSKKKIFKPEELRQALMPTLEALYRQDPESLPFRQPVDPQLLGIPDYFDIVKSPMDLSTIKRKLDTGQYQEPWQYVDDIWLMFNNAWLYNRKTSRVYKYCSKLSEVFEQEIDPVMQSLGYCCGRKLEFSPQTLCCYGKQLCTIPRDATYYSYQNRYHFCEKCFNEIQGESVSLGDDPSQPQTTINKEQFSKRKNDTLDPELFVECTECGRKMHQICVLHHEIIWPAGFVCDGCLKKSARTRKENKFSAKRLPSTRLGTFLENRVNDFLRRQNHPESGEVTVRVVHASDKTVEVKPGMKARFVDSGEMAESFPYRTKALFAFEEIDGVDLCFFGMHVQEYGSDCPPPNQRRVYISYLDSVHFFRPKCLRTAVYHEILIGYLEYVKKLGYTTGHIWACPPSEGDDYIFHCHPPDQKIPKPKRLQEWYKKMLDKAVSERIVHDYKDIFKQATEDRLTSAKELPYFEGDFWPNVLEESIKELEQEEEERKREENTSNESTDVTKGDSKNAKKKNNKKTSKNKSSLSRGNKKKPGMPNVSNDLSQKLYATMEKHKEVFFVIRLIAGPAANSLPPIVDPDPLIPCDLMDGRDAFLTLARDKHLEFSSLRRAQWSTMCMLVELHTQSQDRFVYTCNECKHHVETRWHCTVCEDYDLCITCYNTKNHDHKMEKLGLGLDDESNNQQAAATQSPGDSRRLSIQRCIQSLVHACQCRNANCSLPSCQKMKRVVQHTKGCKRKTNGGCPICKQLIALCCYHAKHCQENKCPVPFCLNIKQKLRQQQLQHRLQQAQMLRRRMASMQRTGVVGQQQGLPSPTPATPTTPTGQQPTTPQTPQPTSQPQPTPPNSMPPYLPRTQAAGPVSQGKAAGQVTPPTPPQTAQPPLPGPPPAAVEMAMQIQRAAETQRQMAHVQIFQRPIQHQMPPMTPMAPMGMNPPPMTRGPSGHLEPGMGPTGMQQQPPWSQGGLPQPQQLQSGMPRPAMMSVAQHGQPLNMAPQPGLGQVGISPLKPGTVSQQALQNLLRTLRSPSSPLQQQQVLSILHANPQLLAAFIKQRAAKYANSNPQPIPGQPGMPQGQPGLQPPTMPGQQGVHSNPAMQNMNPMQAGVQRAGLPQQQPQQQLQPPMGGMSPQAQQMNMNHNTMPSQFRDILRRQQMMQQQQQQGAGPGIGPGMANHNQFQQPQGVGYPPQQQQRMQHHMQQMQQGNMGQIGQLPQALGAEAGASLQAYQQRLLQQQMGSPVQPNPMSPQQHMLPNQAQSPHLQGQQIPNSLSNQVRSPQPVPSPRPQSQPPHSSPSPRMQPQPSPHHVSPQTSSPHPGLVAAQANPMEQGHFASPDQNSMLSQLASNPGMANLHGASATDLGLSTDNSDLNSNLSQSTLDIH

On to `Cn1c(=O)n(C)c2cc(-c3cccc4cc(-c5cnc(C(=O)NCC#Cc6ccc7occ(C8CCC(=O)NC8=O)c7c6)c(Cl)c5)ncc34)ccc21` (stereo not shown) [Example A73, 3-chloro-5-(8-(1,3-dimethyl-2-oxo-2,3-dihydro-1H-benzo[d]imidazol-5-yl)isoquinolin-3-yl)-N-(3-(3-(2,6-dioxopiperidin-3-yl)benzofuran-5-yl)prop-2-yn-1-yl)picolinamide], for which the Dmax is over 80% and the DC50 fell in the range of 1 to 9.9 nM.
`Cc1cc(-c2ncc(N(C)c3ccc4c(c3)n(C)c(=O)n4C)cn2)cnc1C(=O)NCC#Cc1ccc2occ(C3CCC(=O)NC3=O)c2c1` (stereo not shown) [Example A103, 5-(5-((1,3-dimethyl-2-oxo-2,3-dihydro-1H-benzo[d]imidazol-5-yl)(methyl)amino)pyrimidin-2-yl)-N-(3-(3-(2,6-dioxopiperidin-3-yl)benzofuran-5-yl)prop-2-yn-1-yl)-3-methylpicolinamide] returned a Dmax of 60 to 79% and a DC50 of 1 to 9.9 nM.
For `CC(C)c1cc(-c2cccc3cc(-c4ccc(C(=O)NCC#Cc5ccc6c(CN(C)C)nn(C7CCC(=O)NC7=O)c6c5)nc4)ncc23)cc2c1n(C)c(=O)n2C` (stereo not shown) [Example A28, N-(3-(3-((Dimethylamino)methyl)-1-(2,6-dioxopiperidin-3-yl)-1H-indazol-6-yl)prop-2-yn-1-yl)-5-(8-(7-isopropyl-1,3-dimethyl-2-oxo-2,3-dihydro-1H-benzo[d]imidazol-5-yl)isoquinolin-3-yl)picolinamide], in that order: 60 to 79% and 1 to 9.9 nM.
For `Cc1cc(-c2ccc(N(C)c3cc4c(c(C(C)C)n3)n(C)c(=O)n4C)cn2)cnc1C(=O)NCC#Cc1ccc2occ(C3CCC(=O)NC3=O)c2c1` (stereo not shown) [Example A60, N-(3-(3-(2,6-dioxopiperidin-3-yl)benzofuran-5-yl)prop-2-yn-1-yl)-5-((4-isopropyl-1,3-dimethyl-2-oxo-2,3-dihydro-1H-imidazo[4,5-c]pyridin-6-yl)(methyl)amino)-5′-methyl-[2,3′-bipyridine]-6′-carboxamide], in that order: under 20% and over 1000 nM.
For `CC(C)c1cc(-c2cccc3cc(-c4ccc(C(=O)NCC#Cc5ccc6ncnc(C7CCC(=O)NC7=O)c6c5)nc4)ncc23)cc2c1n(C)c(=O)n2C` (stereo not shown) [Example A214, N-(3-(4-(2,6-dioxo-piperidin-3-yl)quinazolin-6-yl)prop-2-yn-1-yl)-5-(8-(7-isopropyl-1,3-dimethyl-2-oxo-2,3-dihydro-1H-benzo [d]imidazol-5-yl)isoquinolin-3-yl)picolinamide], in that order: 60 to 79% and 10 to 99 nM.
In turn, `CC(C)c1cc(N2CCOc3cc(-c4ccc(C(=O)NCC#Cc5ccc6occ(C7CCC(=O)NC7=O)c6c5)nc4)c(Cl)cc32)cc2c1n(C)c(=O)n2C` (stereo not shown) [Example A113, 5-(6-chloro-4-(7-isopropyl-1,3-dimethyl-2-oxo-2,3-dihydro-1H-benzo[d]imidazol-5-yl)-3,4-dihydro-2H-benzo[b][1,4]oxazin-7-yl)-N-(3-(3-(2,6-dioxopiperidin-3-yl)benzofuran-5-yl)prop-2-yn-1-yl)picolinamide] came in with a Dmax of over 80% and a DC50 of 10 to 99 nM.
For `CC(C)c1cc(-c2cccc3cc(-c4ccc(C(=O)NCC#Cc5cnc6occ(C7CCC(=O)NC7=O)c6c5)nc4)ncc23)cc2c1n(C)c(=O)n2C` (stereo not shown) [Example A196, N-(3-(3-(2,6-dioxo-piperidin-3-yl)furo[2,3-b]pyridin-5-yl)prop-2-yn-1-yl)-5-(8-(7-isopropyl-1,3-dimethyl-2-oxo-2,3-dihydro-1H-benzo[d]imidazol-5-yl)isoquinolin-3-yl)picolinamide], in that order: over 80% and 1 to 9.9 nM.
`Cc1cc2c(N3CCCc4nc(-c5ccc(C(=O)NCC#Cc6ccc7occ(C8CCC(=O)NC8=O)c7c6)nc5)ncc43)nc(N(C)C)cc2n(C)c1=O` (stereo not shown) [Example B128, 5-(5-(7-(dimethylamino)-1,3-dimethyl-2-oxo-1,2-dihydro-1,6-naphthyridin-5-yl)-5,6,7,8-tetrahydropyrido[3,2-d]pyrimidin-2-yl)-N-(3-(3-(2,6-dioxopiperidin-3-yl)benzofuran-5-yl)prop-2-yn-1-yl)picolinamide]: the Dmax is over 80% and the DC50 is 1 to 9.9 nM.
For `Cn1c(=O)n(C)c2cc(-c3cccc4cc(-c5ccc(C(=O)NCC#Cc6cc7c(C8CCC(=O)NC8=O)cccc7o6)nc5)ncc34)ncc21` (stereo not shown) [Example A179, 5-(8-(1,3-dimethyl-2-oxo-2,3-dihydro-1H-imidazo[4,5-c]pyridin-6-yl)isoquinolin-3-yl)-N-(3-(4-(2,6-dioxopiperidin-3-yl)benzofuran-2-yl)prop-2-yn-1-yl)picolinamide], in that order: 60 to 79% and 1 to 9.9 nM.
Compound `CCC(=O)N1CCC(c2cc(N3CCCc4nc(-c5ccc(C(=O)NCC#Cc6ccc7occ(C8CCC(=O)NC8=O)c7c6)nc5)ncc43)c3cc(C)c(=O)n(C)c3c2)CC1` (stereo not shown) [Example B52, 5-(5-(1,3-dimethyl-2-oxo-7-(1-propionyl-piperidin-4-yl)-1,2-dihydroquinolin-5-yl)-5,6,7,8-tetrahydropyrido[3,2-d]pyrimidin-2-yl)-N-(3-(3-(2,6-dioxopiperidin-3-yl)benzofuran-5-yl)prop-2-yn-1-yl)picolinamide] gave a Dmax of over 80% and a 50% degradation concentration (DC50) of under 1 nM.
For `CC(C)c1cc(-c2cccc3cc(-c4ccc(C(=O)NCC#Cc5cc(N(C)C)c6cnn(C7CCC(=O)NC7=O)c6c5)nc4)ncc23)cc2c1n(C)c(=O)n2C` (stereo not shown) [Example A9, N-(3-(4-(Dimethylamino)-1-(2,6-dioxopiperidin-3-yl)-1H-indazol-6-yl)prop-2-yn-1-yl)-5-(8-(7-isopropyl-1,3-dimethyl-2-oxo-2,3-dihydro-1H-benzo[d]imidazol-5-yl)isoquinolin-3-yl)picolinamide], in that order: 60 to 79% and 10 to 99 nM.
For `Cc1cc(N2CCN(C)c3cc(-c4ccc(C(=O)NCC#Cc5cc6c(C7CCC(=O)NC7=O)cccc6o5)nc4)ncc32)cc2c1n(C)c(=O)n2C` (stereo not shown) [Example A239, N-(3-(4-(2,6-dioxo-piperidin-3-yl)benzofuran-2-yl)prop-2-yn-1-yl)-5-(1-methyl-4-(1,3,7-trimethyl-2-oxo-2,3-dihydro-1H-benzo [d]imidazol-5-yl)-1,2,3,4-tetrahydro-pyrido[3,4-b]pyrazin-7-yl)picolinamide], in that order: over 80% and under 1 nM.
On to `CC(C)c1cc(-c2cccc3cc(-c4ccc(C(=O)NCC#Cc5cc6c(C7CCC(=O)NC7=O)cn(C)c6cn5)nc4)ncc23)cc2c1n(C)c(=O)n2C` (stereo not shown) [Example A232, N-(3-(3-(2,6-dioxo-piperidin-3-yl)-1-methyl-1H-pyrrolo [2,3-c]pyridin-5-yl)prop-2-yn-1-yl)-5-(8-(7-isopropyl-1,3-dimethyl-2-oxo-2,3-dihydro-1H-benzo[d]imidazol-5-yl)isoquinolin-3-yl)picolinamide], for which the Dmax fell in the range of 40 to 59% and the 50% degradation concentration (DC50) was in the range of 10 to 99 nM.
`CCc1cc(N(C)c2ccc(-c3cnc(C(=O)NCC#Cc4cccc(NC5CCC(=O)NC5=O)c4)c(C)c3)c(Cl)c2)c2cc(C)c(=O)n(C)c2c1` (stereo not shown) [Example B11, 5-(2-Chloro-4-((7-ethyl-1,3-dimethyl-2-oxo-1,2-dihydroquinolin-5-yl)(methyl)amino)phenyl)-N-(3-(3-((2,6-dioxopiperidin-3-yl)amino)phenyl)prop-2-yn-1-yl)-3-methylpicolinamide] came in with a Dmax of over 80% and a DC50 of 10 to 99 nM.
